From paper PMC3090687 (Journal of medicinal chemistry, 2011)

Assay: in vivo pharmacokinetics in mice, intravenous and oral
Design: species or system mouse

Row | oral bioavailability, in words (oral administration) | improvement of bioavailability compared to compound 1 (oral, comparison with ref 22) | Compound
1 | very limited oral bioavailability | – | CCC(=O)N1CCN(c2ccc(-n3c(=O)ccc4cnc5ccc(-c6cnc7ccccc7c6)cc5c43)cc2C(F)(F)F)CC1 [Compound 1, 1-(4-(4-propionylpiperazin-1-yl)-3-(trifluoromethyl)phenyl)-9-(quinolin-3-yl)benzo[h][1,6]naphthyridin-2(1H)-one]
2 | – | approximately 10 fold | Nc1ccc(-c2ccc3ncc4ccc(=O)n(-c5cccc(C(F)(F)F)c5)c4c3c2)cn1 [Compound 3, 9-(6-aminopyridin-3-yl)-1-(3-(trifluoromethyl)phenyl)benzo[h][1,6]naphthyridin-2(1H)-one]
